Assay results from PubChem BioAssay AID330 (DTP/NCI, 2004).
Toxic doses and inconclusive results are not listed.

Test system: P388 leukemia ip, CD2F1 mice, survival T/C
Assay: NCI In Vivo Anticancer Drug Screen. Data for tumor model P388 Leukemia (intraperitoneal) in CD2F1 (CDF1) mice
Conditions: endpoint: median survival time, higher = longer survival
Method in brief: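 Mice carrying the transplanted tumor received test compound or vehicle. Survival was recorded in each group, and the value is the treated-group measurement divided by that of the vehicle-treated control group.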

[1] = dose: 50.0 mg/kg/injection, schedule: Q01DX009 (ip), vehicle: saline with Tween-80
[2] = dose: 100.0 mg/kg/injection, schedule: Q01DX009 (ip), vehicle: saline with Tween-80
[3] = dose: 50.0 mg/kg/injection, schedule: Q01DX009 (ip), vehicle: saline
[4] = dose: 100.0 mg/kg/injection, schedule: Q01DX009 (ip), vehicle: saline
[5] = dose: 50.0 mg/kg/injection, schedule: Q01DX005 (ip), vehicle: saline with Tween-80
[6] = dose: 100.0 mg/kg/injection, schedule: Q01DX005 (ip), vehicle: saline with Tween-80
[7] = dose: 200.0 mg/kg/injection, schedule: Q01DX005 (ip), vehicle: saline with Tween-80
[8] = dose: 60.0 mg/kg/injection, schedule: Q01DX005 (ip), vehicle: saline with Tween-80
[9] = dose: 120.0 mg/kg/injection, schedule: Q01DX005 (ip), vehicle: saline with Tween-80
[10] = dose: 240.0 mg/kg/injection, schedule: Q01DX005 (ip), vehicle: saline with Tween-80

NNc1ccc(-n2ncc(C(N)=O)c2N)nn1
T/C (dose: 50.0 mg/kg/injection, schedule: Q01DX005 (ip), vehicle: other): 104 % of control
T/C (dose: 100.0 mg/kg/injection, schedule: Q01DX005 (ip), vehicle: other): 107 % of control

Cc1cccnc1NC1OC(=O)c2ccccc21 (stereo unspecified)
T/C [1]: 100 % of control
T/C [2]: 96 % of control

CC12C(=O)C=CCC1=CCC1C2CCC2(O)C(=O)OC3(C)C4CC5(C)C(COC16OC23C5C6=O)C(=O)O4 (stereo unspecified)
T/C (dose: 25.0 mg/kg/injection, schedule: Q01DX009 (ip), vehicle: saline with Tween-80): 96 % of control
T/C [1]: 110 % of control
T/C [2]: 120 % of control
T/C (dose: 150.0 mg/kg/injection, schedule: Q01DX009 (ip), vehicle: Klucel (hydroxypropylcellulose) (HPC)): 121 % of control

CCOC(=O)NCP(Cl)(CNC(=O)OCC)(CNC(=O)OCC)CNC(=O)OCC
T/C [3]: 99 % of control
T/C [4]: 86 % of control

CCCCCC(=O)c1c(O)cc2c(c1O)C(=O)c1c(O)cc(OC)cc1C2=O
T/C (dose: 6.25 mg/kg/injection, schedule: Q01DX009 (ip), vehicle: saline with Tween-80): 93 % of control
T/C (dose: 12.5 mg/kg/injection, schedule: Q01DX009 (ip), vehicle: saline with Tween-80): 93 % of control

COC(=O)c1ccc(N(C)CC/C(CN)=N/NC(N)=O)cc1
T/C [5]: 99 % of control
T/C [6]: 91 % of control
T/C [7]: 87 % of control

Nc1nc(N)c2[nH]c(CNc3ccc(C(=O)O)cc3)nc2n1
T/C [8]: 89 % of control
T/C [9]: 89 % of control
T/C [10]: 86 % of control

CC(=O)N1C2C3CCC(C)(OC3(C)C)C21 (stereo unspecified)
T/C (dose: 50.0 mg/kg/injection, schedule: Q01DX005 (ip), vehicle: saline): 107 % of control
T/C (dose: 100.0 mg/kg/injection, schedule: Q01DX005 (ip), vehicle: saline): 102 % of control
T/C (dose: 200.0 mg/kg/injection, schedule: Q01DX005 (ip), vehicle: saline): 110 % of control

COc1ccc(CC(=O)c2ccc(OC)cc2O)cc1
T/C (dose: 100.0 mg/kg/injection, schedule: Q01DX001 (ip), vehicle: saline with Tween-80): 103 % of control
T/C (dose: 200.0 mg/kg/injection, schedule: Q01DX001 (ip), vehicle: saline with Tween-80): 104 % of control
T/C (dose: 400.0 mg/kg/injection, schedule: Q01DX001 (ip), vehicle: saline with Tween-80): 101 % of control

O=Cc1ccccc1-c1ccccc1C=O
T/C (dose: 100.0 mg/kg/injection, schedule: Q04DX002 (ip), vehicle: saline with Tween-80): 106 % of control
T/C (dose: 200.0 mg/kg/injection, schedule: Q04DX002 (ip), vehicle: saline with Tween-80): 103 % of control

CCNCC(O)c1cccc(C(F)(F)F)c1 (stereo unspecified)
T/C [3]: 102 % of control
T/C [4]: 109 % of control

CC(=O)Oc1ccccc1C(=O)OC(C)c1ccccc1 (stereo unspecified)
T/C (dose: 50.0 mg/kg/injection, schedule: Q01DX005 (ip), vehicle: Klucel (hydroxypropylcellulose) (HPC)): 100 % of control
T/C (dose: 100.0 mg/kg/injection, schedule: Q01DX005 (ip), vehicle: Klucel (hydroxypropylcellulose) (HPC)): 98 % of control
T/C (dose: 200.0 mg/kg/injection, schedule: Q01DX005 (ip), vehicle: Klucel (hydroxypropylcellulose) (HPC)): 104 % of control

CCOC(=O)CC(=O)C(OC)OC
T/C [3]: 106 % of control
T/C [4]: 105 % of control
T/C (dose: 200.0 mg/kg/injection, schedule: Q01DX009 (ip), vehicle: saline): 102 % of control
T/C (dose: 400.0 mg/kg/injection, schedule: Q01DX009 (ip), vehicle: saline): 98 % of control

O=C1NCC2CCCC1C2 (stereo unspecified)
T/C [5]: 101 % of control
T/C [6]: 100 % of control
T/C [7]: 97 % of control

Nc1nnc(Cc2cccc3ccccc23)o1
T/C [8]: 109 % of control
T/C [9]: 106 % of control
T/C [10]: 103 % of control
